#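 Interpolation was linear, between the two tested concentrations surrounding the appropriate level; five concentrations were tested over 48 hours in 96-well plates. GI50 = concentration required for 50% inhibition of growth.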 The source made the active and inactive calls. Cut-off read from the data, not from the text of the source: active = GI50 up to about 1.1 µM and inactive = higher.
# Legend:
# Experiment in all cases: growth of human tumour cells (NCI), 48 h
# DU-145 = tested on: DU-145
# Hs-578T = tested on: Hs-578T
# EKVX = tested on: EKVX
# SK-MEL-2 = tested on: SK-MEL-2
# LOX IMVI = tested on: LOX IMVI
# CCRF-CEM = tested on: CCRF-CEM
# NCI/ADR-RES = tested on: NCI/ADR-RES
# HT-29 = tested on: HT-29
# HCC 2998 = tested on: HCC 2998
# MOLT-4 = tested on: MOLT-4
# MDA-MB-231 = tested on: MDA-MB-231
# MCF7 = tested on: MCF7
# BT-549 = tested on: BT-549
# HOP-92 = tested on: HOP-92
# SNB-75 = tested on: SNB-75
# RPMI-8226 = tested on: RPMI-8226
# UO-31 = tested on: UO-31
# 786-0 = tested on: 786-0
# NCI-H226 = tested on: NCI-H226
# SW-620 = tested on: SW-620
SMILES,GI50 (DU-145),GI50 (Hs-578T),GI50 (EKVX),GI50 (SK-MEL-2),GI50 (LOX IMVI),GI50 (CCRF-CEM),GI50 (NCI/ADR-RES),GI50 (HT-29),GI50 (HCC 2998),GI50 (MOLT-4),GI50 (MDA-MB-231),GI50 (MCF7),GI50 (BT-549),GI50 (HOP-92),GI50 (SNB-75),GI50 (RPMI-8226),GI50 (UO-31),GI50 (786-0),GI50 (NCI-H226),GI50 (SW-620)
CCOC(=O)C1=C(C)N(Cc2ccccc2)C2(O)C=CC(O)=C3C(=O)c4ccccc4C(=O)C312 (stereo not given),16.5 µM (inactive),22.4 µM (inactive),16.4 µM (inactive),13.9 µM (inactive),14.1 µM (inactive),8.61 µM (inactive),0.182 µM (active),31.5 µM (inactive),17 µM (inactive),8.15 µM (inactive),15.3 µM (inactive),0.128 µM (active),0.541 µM (active),17.2 µM (inactive),22.1 µM (inactive),9.42 µM (inactive),9.73 µM (inactive),13.4 µM (inactive),20.6 µM (inactive),13.6 µM (inactive)
O=[N+]([O-])c1ccc2c(c1)Nc1c3ccccc3nc3cccc-2c13,0.593 µM (active),6.53 µM (inactive),11.6 µM (inactive),15 µM (inactive),1.93 µM (inactive),1.84 µM (inactive),2.82 µM (inactive),3.1 µM (inactive),0.183 µM (active),0.895 µM (active),2.41 µM (inactive),0.219 µM (active),16.3 µM (inactive),4.73 µM (inactive),3.61 µM (inactive),4.49 µM (inactive),5.65 µM (inactive),1.02 µM (active),25.9 µM (inactive),2.13 µM (inactive)
CC(C)C[C@H](NC(=O)[C@@H](Cc1cccc2ccccc12)NC(=O)N1CCOCC1)B(O)O,10.9 µM (inactive),3.84 µM (inactive),14.3 µM (inactive),3.33 µM (inactive),2.36 µM (inactive),1.57 µM (inactive),51.4 µM (inactive),2.64 µM (inactive),2.01 µM (inactive),3.2 µM (inactive),4.48 µM (inactive),5.43 µM (inactive),3.99 µM (inactive),2.67 µM (inactive),1.18 µM (inactive),2.52 µM (inactive),19.5 µM (inactive),4.79 µM (inactive),1.61 µM (inactive),3.14 µM (inactive)
c1ccc(CN2CCc3[nH]c4ccccc4c3C2)cc1,31 µM (inactive),32.5 µM (inactive),46.5 µM (inactive),19.9 µM (inactive),18.3 µM (inactive),24.3 µM (inactive),36.1 µM (inactive),17.3 µM (inactive),15.4 µM (inactive),22.2 µM (inactive),26.7 µM (inactive),17.1 µM (inactive),30.5 µM (inactive),18 µM (inactive),51.6 µM (inactive),23.8 µM (inactive),31.8 µM (inactive),22 µM (inactive),33.4 µM (inactive),24.8 µM (inactive)
CC1(C)OC1CC/C(=C/CBr)CBr (stereo not given),20.9 µM (inactive),17.5 µM (inactive),18.1 µM (inactive),14.8 µM (inactive),10.2 µM (inactive),8.17 µM (inactive),18.8 µM (inactive),14.9 µM (inactive),16 µM (inactive),16.7 µM (inactive),15.7 µM (inactive),15 µM (inactive),16.7 µM (inactive),15.4 µM (inactive),6.82 µM (inactive),12.9 µM (inactive),14.4 µM (inactive),15.4 µM (inactive),21.7 µM (inactive),15 µM (inactive)
CO[C@@H]1C[C@H]2N3CC[C@@]2(c2cc4c(cc2C3)OCO4)[C@H]2O[C@@H]12,> 100 µM (inactive),> 100 µM (inactive),> 100 µM (inactive),> 100 µM (inactive),> 100 µM (inactive),> 100 µM (inactive),> 100 µM (inactive),> 100 µM (inactive),> 100 µM (inactive),> 100 µM (inactive),> 100 µM (inactive),> 100 µM (inactive),> 100 µM (inactive),> 100 µM (inactive),> 100 µM (inactive),> 100 µM (inactive),> 100 µM (inactive),> 100 µM (inactive),1.34 µM (inactive),> 100 µM (inactive)
